According to patent US7964591B2, “Pyridazine derivatives and their use as therapeutic agents” (Novartis Pharma AG, priority 2003, dated 2011):
Marks after values point to notes of the source that are not given here.

What was measured:
Type in all cases: in vivo, female Crl:NMRI mice
sebaceous glands [1] = assay: Topical LCF369 on sebaceous glands of NMRI mice: clinical service form candidates (0.5% formulations)
Description: (§1) LCF369 is prepared either in a solution of ethanol/propylene glycol (3/7, v/v) or in topical formulations at 1.0, 0.5 or 0.1% for testing in female Crl:NMRI mice. In general, shaved application sites of approximately 2.5 cm^2 on the back of mice are treated twice daily (once on weekends or at study termination) with 50 μl of the LCF369 preparations. To prevent the animals from potential oral uptake of the epicutaneously applied compounds, they are fitted with ruffs and housed individually. After the last application, the animals are euthanised; the treated sites dissected and prepared for histological sections. […] The entire sections of approximately 10 mm length are evaluated microscopically (200×) for sebaceous glands. The mean size and mean number (per mm^2 dermis) of sectioned alveolar units of the sebaceous glands are determined in a coded fashion with an image analyzer (Axiovision, Zeiss). For statistical analysis, morphometric data are analyzed with a T-test or Mann-Whitney rank sum test. […]
Three different formulations containing 0.5% LCF369 are tested; i) emulsion gel with the penetration enhancer Sepa 09 (batch 92.66.01-ra), ii) emulsion gel without a penetration enhancer (batch 9450-05-Ra), and iii) a formulation containing particulate compound (“follicular targeting formulation”). They are evaluated after 9 or 13 applications.

sebaceous glands [2] = assay: Topical LCF369 on sebaceous glands of NMRI mice: duration of action
Description: as §1, with “sections. Hematoxilin/eosin (HE)-stained 3 μm-thick sections are prepared from formalin-fixed, paraffin-embedded tissue.” for “sections.”
A 7-day b.i.d. (twice daily) treatment schedule (except on week ends when the animals were treated once daily) with 1.0% LCF369 is applied to groups of 7 mice which are evaluated on days 8 (one day after the 14th application), 24 and 41. […]

sebaceous glands [3] = assay: Topical LCF369 on sebaceous glands of NMRI mice: minimal treatment period; settings: for mean size decrease: 1.0% LCF369 twice daily, vs vehicle
Description: (§2) LCF369 is prepared either in a solution of ethanol/propylene glycol (3/7, v/v) or in topical formulations at 1.0, 0.5 or 0.1% for testing in female Crl:NMRI mice. In general, shaved application sites of approximately 2.5 cm^2 on the back of mice are treated twice daily (once on weekends or at study termination) with 50 μl of the LCF369 preparations. To prevent the animals from potential oral uptake of the epicutaneously applied compounds, they are fitted with ruffs and housed individually. After the last application, the animals are euthanised; the treated sites dissected and prepared for histological sections. Hematoxilin/eosin (HE)-stained 3 μm-thick sections are prepared from formalin-fixed, paraffin-embedded tissue. From each animal, one HE-stained section per site is histomorphometrically examined. The entire sections of approximately 10 mm length are evaluated microscopically (200×) for sebaceous glands. The mean size and mean number (per mm^2 dermis) of sectioned alveolar units of the sebaceous glands are determined in a coded fashion with an image analyzer (Axiovision, Zeiss). For statistical analysis, morphometric data are analyzed with a T-test or Mann-Whitney rank sum test. Frozen tissue sections (5 μm) are used for oil red O (lipid) staining.
Groups of 4 mice are treated with 1.0% LCF369 twice daily for 2, 4, 6 and 8 days (i.e. up to 16 applications). Control groups remain untreated or are treated with the vehicle alone twice daily for 8 days.

sebaceous glands [4] = assay: Topical LCF369 on sebaceous glands of NMRI mice: minimal effective concentration; settings: LCF369 1.0% (w/v) twice daily, 7 days, mean (SD), 6 animals
Description: as §2
LCF369 is tested at 1.0%, 0.5% and 0.1%, groups of 6 mice are treated twice daily for 7 consecutive days. […]

sebaceous glands [5] = assay: Topical LCF369 on sebaceous glands of NMRI mice: evaluation of efficacy
Description: as §2
Groups of 5 mice are treated with 50 μl of 1% or 0.1% LCF369 twice daily (except on weekends, when the animals are treated once daily and on study termination) for 8 days (i.e. 14 applications in total). Four control animals are treated similarly with the vehicle alone. In life, the animals are observed for clinical signs and macroscopic changes of the application sites. One day after the last application, an evaluation is performed. In animals treated with 1.0% LCF369, untreated skin samples distant from the treated sites are also collected in order to assess systemic activity due to percutaneous absorption of LCF369.

[6] = LCF369-treated vs vehicle-treated skin

SMILES: O=C(NCCC1CC1)c1ccc(N2CCN(C(=O)c3cc(F)ccc3C(F)(F)F)CC2)nn1 [LCF369, 6-[4-(5-Fluoro-2-trifluoromethylbenzoyl)piperazin-1-yl]pyridazine-3-carboxylic acid (2-cyclopropylethyl)amide]
- hyper/parakeratosis and acanthosis in skin sections (sebaceous glands [1]; 0.5% LCF369 formulation containing SEPA-9 vs placebo-treated (vehicle-treated) samples): more pronounced
- effect on sebaceous glands (sebaceous glands [1]; 0.5% LCF369 formulation containing penetration enhancer SEPA-9): significant atrophy of sebaceous glands
- atrophogenic effect from LCF369 treatment (sebaceous glands [2]; 1% LCF369, on day 24): substantially reduced
- atrophogenic effect from LCF369 treatment (sebaceous glands [2]; 1% LCF369, on day 41): almost completely absent
- mean size decrease (sebaceous glands [3]; after 4 days): 35%
- mean size decrease (sebaceous glands [3]; after 6 days): 35%
- mean size decrease (sebaceous glands [3]; after 8 days): 72%
- Maximum reduction in sizes and numbers of sebaceous glands (sebaceous glands [3]; topical application, compared to untreated skin): up to 75%
- Number of sebaceous glandular units (sebaceous glands [4]): 10.1 (4.0)*** per mm^2 dermis
- atrophogenic effects (sebaceous glands [5]; 0.1% LCF369, 8 days): little or no atrophogenic effects
- reduction of sebaceous glands in sizes (fold) (sebaceous glands [5]; 1.0% LCF369, 8 days, p<0.01): about 1.9 fold
- differences in numbers and sizes of sebaceous glands at sites distant from the treatments (sebaceous glands [5]; 1.0% LCF369, distant sites): no significant differences
- histochemical (HE) staining of treated skin, FIG. 2B (sebaceous glands [5]; [6]): fewer and smaller (atrophic) sebaceous glands
- oil red O (lipid) staining of treated skin, FIG. 3B (sebaceous glands [5]; [6]): significantly reduced lipids associated with hair shafts
